Measurements as given in ChEMBL document CHEMBL1124594, “4-(Phosphonoalkyl)- and 4-(phosphonoalkenyl)-2-piperidinecarboxylic acids: synthesis, activity at N-methyl-D-aspartic acid receptors, and anticonvulsant activity” (J Med Chem, 1989).

How the values were obtained:
Mus musculus [1] = test: Effective dose of the intraperitoneally administered compound causing loss of traction reflex, was tested in N-methyl-D-aspartic acid convulsions model; format: functional; details: ip
Mus musculus [2] = test: Effective dose of the intraperitoneally administered compound protecting mice against tonic seizures, was tested in N-methyl-D-aspartic acid convulsions model; format: functional; details: ip
Glutamate NMDA receptor [3] = test: Inhibition of [3H]-CGS- 19755 binding to N-methyl-D-aspartic acid receptors in rat crude synaptic membranes; format: cell membranes, Membrane
Glutamate NMDA receptor [4] = test: Inhibition of [3H]-CGS- 19755 binding to N-methyl-D-aspartate glutamate receptor in rat crude synaptic membranes; format: cell membranes, Membrane

| SMILES | IC50 (Glutamate NMDA receptor [3]) | IC50 (Glutamate NMDA receptor [4]) | ED50 (Mus musculus [1]) | ED50 (Mus musculus [2]) |
| --- | --- | --- | --- | --- |
| O=C(O)[C@H]1C[C@@H](/C=C/CP(=O)(O)O)CCN1 | – | 14 nM | 1.9 mg/kg | 1.2 mg/kg |
| O=C(O)[C@H]1C[C@H](/C=C/CP(=O)(O)O)CCN1 | – | 39 nM | 14 mg/kg | 8.3 mg/kg |
| C[C@H]1[C@@H](CP(=O)(O)O)CCN[C@H]1C(=O)O | – | 1300 nM | 33 mg/kg | 26 mg/kg |
| O=C(O)[C@H]1C[C@H](CP(=O)(O)O)CCN1 | – | 452 nM | – | – |
| N[C@H](CCCCCP(=O)(O)O)C(=O)O | 912 nM | – | 188 mg/kg | 34 mg/kg |
| CN1CC[C@H](CP(=O)(O)O)C[C@@H]1C(=O)O | – | 28000 nM | – | – |
| N[C@@H](CCCP(=O)(O)O)C(=O)O | 350 nM | – | > 154 mg/kg | > 154 mg/kg |
| O=C(O)[C@@H]1C[C@H](CP(=O)(O)O)CCN1 [SELFOTEL] | 32 nM | – | 5.4 mg/kg | 2.1 mg/kg |

Continued, in another order:

| IC50 (Glutamate NMDA receptor [3]) | IC50 (Glutamate NMDA receptor [4]) | SMILES | ED50 (Mus musculus [1]) | ED50 (Mus musculus [2]) |
| --- | --- | --- | --- | --- |
| 220 nM | – | O=C(O)C1CN(CCCP(=O)(O)O)CCN1 (stereo not drawn) | 6.1 mg/kg | 1.9 mg/kg |
| – | 800 nM | CC([C@H]1CCN[C@@H](C(=O)O)C1)P(=O)(O)O (stereo partly drawn) | 64 mg/kg | 21 mg/kg |
| – | 1600 nM | C[C@@H]1C[C@H](CP(=O)(O)O)C[C@H](C(=O)O)N1 | 84 mg/kg | 34 mg/kg |
| – | 78 nM | C[C@H]1CN[C@@H](C(=O)O)C[C@H]1CP(=O)(O)O | 29 mg/kg | 7.1 mg/kg |
| – | 80 nM | O=C(O)[C@H]1C[C@H](C/C=C/P(=O)(O)O)CCN1 | 20 mg/kg | 10 mg/kg |
| – | 1300 nM | CC(C)([C@H]1CCN[C@@H](C(=O)O)C1)P(=O)(O)O | – | – |
| – | 72 nM | O=C(O)[C@H]1C[C@@H](C/C=C/P(=O)(O)O)CCN1 | 14 mg/kg | 2.5 mg/kg |
| 98 nM | – | O=C(O)[C@H]1C[C@@H](CCCP(=O)(O)O)CCN1 | 5.4 mg/kg | 2 mg/kg |
| – | 105 nM | O=C(O)[C@H]1C[C@H](CCCP(=O)(O)O)CCN1 | – | – |
